Experiments:
[1] = system: type IV phosphodiesterase; assay: Type IV phosphodiesterase inhibiting activity (3H-cAMP hydrolysis, PDE IV fraction from U937 cells); assay type: biochemical; details: PDE IV fraction from human U937 cells, 30° C., 30 minutes
Method: (1) Method of Measurement of Type IV Phosphodiesterase Inhibiting Activity
The following assay was used to evaluate the ability of the compound of the present invention to suppress type IV phosphodiesterase, according to Biochemical.
1) Type IV phosphodiesterase activity fractions were prepared as follows. Human histiocytic lymphoma cell line U937 was cultured in an RPMI1640 medium containing 10% fetal calf serum to obtain 10^9 cells of U937. The cells were recovered by centrifugation and suspended in 40 ml of buffer A (20 mM bis-tris, 5 mM 2-mercaptoethanol, 2 mM benzamidine, 2 mM EDTA, 0.1 mM 4-(2-aminoethyl)benzensulfonyl hydrochloride, 50 mM sodium acetate, pH=6.5). The cells were broken by a sonication and centrifuged (4° C., 10,000G, 10 minutes) to obtain a supernatent. This was filtered by a 0.45 μm filter to obtain the soluble fraction.
The soluble fraction obtained was applied into a 1×10 cm DEAE Sepharose column equalibrated with the buffer A. 120 ml of the buffer A containing a linear gradient solution of 0.05 to 1 M sodium acetate was used to separate the phosphodiesterase and recover 24 5-ml fractions. Each of the fractions was measured for the cAMP phosphodiesterase activity.
2) The test compound was reacted at a desired concentration in a reaction mixture containing 20 mM tris-HCl (pH 7.5), 1 mM MgCl2, 100 μM EDTA, 330 μg/ml calf serum albumin, 10 μg/ml 5′-nucleotidase, 0.4 μCi ^3H-cAMP ([…] cAMP) and the type IV phosphodiesterase stored solution at 30° C. for 30 minutes. QAE-Sephadex suspended in 10 mM of hepes-Na (pH-7.0) was added to the reaction mixture which was then allowed to stand for 5 minutes, then the supernatant was obtained, QAE-Sephadex was further added, to the supernatant, and was allowed to stand for 5 minutes, then the supernatant was obtained and measured for radioactivity.

[2] = system: TNF-α production by LPS stimulated mouse peritoneal macrophages; assay: TNF-α production inhibitory activity by LPS stimulated macrophages (ELISA); assay type: cell-based; details: LPS 10 μg/ml, 8 hours
Method: (1) Method of Measurement of TNF-α Production Inhibitory Activity by LPS Stimulated Macrophages
The following assay was used to evaluate the ability of the compound of the present invention to suppress TNF-α production by LPS stimulated macrophages according to Immuno pharmacol. 29, 121-127 (1995).
1) 6 to 10 week old female BALB/c mice were used, 2 ml portions of thioglycolate were intraperitoneally administered, and the abdominal cavities were washed by 10 ml of PBS after 4 days, whereby 1 to 2×10^7 peritoneal cells were obtained per mouse. These were suspended in a hemocyte solution (0.75% ammonium chloride, 17 mM tris-hydrochlorate buffer, pH7.2), centrifuged, then resuspended in an RPMI1640 medium including 10% fetal calf serum and seeded in a 96-well cell culture plate at a density of 1×10^5 cells/50 μl/well. Since these cells adhered strongly to the tissue culture plate and were positive in nonspecific esterase staining, they were used for the test as mouse peritoneal macrophages. Mouse peritoneal macrophages were precultured overnight at 37° C. in 5% CO2 for the experiment.
2) E. Coli (serum type 055:B5) derived LPS was dissolved in PBS in a concentration of 1 mg/ml, then sterilized by filtration. The test compound was dissolved in DMSO to make a 1000-fold concentration solution of the final concentration of use. 10 μl of the above LPS stock solution (final concentration 10 μg/ml) and 1 μl of the tested substance stock solution were added and mixed in 0.5 ml of RPMI1640 medium containing 10% fetal calf serum. This was added to the above cells at 50 μl/well and cultured for 8 hours. The cultured supernatant was recovered from each well and the TNF-α concentration was measured by the ELISA method (Cytoscreen® Immunoassay Kit Mouse TNF-α, BioSource International).

| IC50 [1] | IC50 ([2]; Peritoneal macrophage) | IC50 [2] | SMILES |
| --- | --- | --- | --- |
| 110 nM | 100 nM | – | CC(=O)c1ccccc1NC(=O)c1cn(-c2ccc(F)cc2)c2ncccc2c1=O [Example 80, N-(2-acetophenyl)-1-(4-fluorophenyl)-1,4-dihydro[1,8]naphthylidin-4-one-3-carboxamide] |
| 130 nM | 500 nM | – | O=C(Nc1ccncc1)c1cn(-c2cccnc2)c2ncccc2c1=O [Example 135, 1-(3-Pyridyl)-N-(4-pyridyl)-1,4-dihydro[1,8]naphthylidin-4-one-3-carboxamide] |
| 810 nM | 1000 nM | – | O=C(Nc1ccccc1O)c1cn(-c2ccc(F)cc2)c2ncccc2c1=O [Example 73, 1-(4-Fluorophenyl)-N-(2-hydroxyphenuyl)-1,4-dihydro[1,8]naphthylidin-4-one-3-carboxamide] |
| 6.4 nM | – | 4 nM | O=C(Nc1c(Cl)cncc1Cl)c1cn(-c2ccccn2)c2ncccc2c1=O [Example 133] |
| 0.8 nM | 0.5 nM | – | O=C(Nc1c(Cl)cncc1Cl)c1cn(-c2ccc(Cl)cc2)c2ncccc2c1=O [Example 125, 1-(4-Chlorophenyl)-N-(3,5-dichloropyridin-4-yl)-1,4-dihydro[1,8]naphthylidin-4-one-3-carboxamide] |
| 210 nM | 100 nM | – | O=C(Nc1cccc2cnccc12)c1cn(-c2ccc(F)cc2)c2ncccc2c1=O [Example 114] |
| 610 nM | 1000 nM | – | Cc1cccc(NC(=O)c2cn(-c3ccc(F)cc3)c3ncccc3c2=O)c1 [Example 70, 1-(4-Fluororhenyl)-N-(3-tolyl)-1,4-dihydro[1,8]naohthylidin-4-one-3-carboxamide] |
| 140 nM | 200 nM | – | Nc1ccc(NC(=O)c2cn(-c3ccc(F)cc3)c3ncccc3c2=O)cc1 [Example 92, N-(4-aminophenyl)-1-(4-fluorophenyl)-1,4-dihydro[1,8]naphthylidin-4-one-3-carboxamide] |
| 1.1 nM | 20 nM | – | O=C(Nc1c(Cl)cncc1Cl)c1cn(-c2ccc(O)nc2)c2ncccc2c1=O [Example 147, N-(3,5-Dichloropyridin-4-yl)-1-(2-hydroxypyridin-5-yl)-1,4-dihydro[1,8]naphthylidin-4-one-3-carboxamide] |
| 13 nM | 100 nM | – | Cc1ccccc1NC(=O)c1cn(-c2ccc(F)cc2)c2ncccc2c1=O [Example 69, 1-(4-Fluorophenyl)-N-(2-tolyl)-1,4-dihydro[1,8]naphthylidin-4-one-3-carboxamide] |
| 110 nM | 500 nM | – | CC(=O)c1cccc(NC(=O)c2cn(-c3ccc(F)cc3)c3ncccc3c2=O)c1 [Example 81, N-(3-acetophenyl)-1-(4-fluorophenyl)-1,4-dihydro[1,8]naphthylidin-4-one-3-carboxamide] |
| 5.9 nM | 30 nM | – | O=C(Nc1c(Cl)cncc1Cl)c1cn(-c2nccs2)c2ncccc2c1=O [Example 152, N-(3,5-Dichloropyridin-4-yl)-1-(2-thiazolyl)-1,4-dihydro[1,8]naphthylidin-4-one-3-carboxamide] |
| 27 nM | 10 nM | – | CC(C)NC(=O)c1cn(-c2ccc(F)cc2)c2ncccc2c1=O [Example 53, 1-(4-Fluorophenyl)-N-isopropyl-1,4-dihydro[1,8]naphthylidin-4-one-3-carboxamide] |
| 100 nM | 200 nM | – | O=C(Nc1ccc(O)cc1)c1cn(-c2ccc(F)cc2)c2ncccc2c1=O [Example 75, 1-(4-Fluorophenyl)-N-(4-hydroxyhenyl)-1,4-dihydro[1,8]naphthylidin-4-one-3-arboxamide] |
| 55 nM | 300 nM | – | O=C(Nc1cccc(CO)c1)c1cn(-c2ccc(F)cc2)c2ncccc2c1=O [Example 79, 1-(4-fluorophenyl)-N-(3-hydroxymethylphenyl)-1,4-dihydro[1,8]naohthylidin-4-one-3-carboxamide] |
| 1400 nM | 400 nM | – | NC(=O)c1cn(-c2ccc(F)cc2)c2ncccc2c1=O [Example 51, 1-(4-Fluorophenyl)-1,4-dihydro[1,8]naphthylidin-4-one-3-carboxamide] |
| 32 nM | 400 nM | – | O=C(O)c1cccc(NC(=O)c2cn(-c3ccc(F)cc3)c3ncccc3c2=O)c1 [Example 86, 3-[{[1-(4-Fluorophenyl)-1,4-dihydro[1,8]naohthylidin-4-one-3-yl]carbonyl}amino]benzoic Acid] |
| 58 nM | 1 nM | – | COc1ccc(-n2cc(C(=O)Nc3ccncc3)c(=O)c3cccnc32)cc1 [Example 122, 1-(4-Methoxyphenyl)-N-(4-pyridyl)-1,4-dihydro[1,8]naphthylidin-4-one-3-carboxamide] |
| 250 nM | – | 700 nM | O=C(NCCc1ccncc1)c1cn(-c2ccccc2)c2ncccc2c1=O [Example 119, 1-Phenyl-N-[2-(4-pyridyl)ethyl]-1,4-dihydro[1,8]naphthylidin-4-one-3-carboxamide] |
| 470 nM | 800 nM | – | O=C(Nc1cccnc1)c1cn(-c2cccnc2)c2ncccc2c1=O [Example 134, 1,N-bis-(3-Pyridyl)-1,4-dihydro[1,8]naphthylidin-4-one-3-carboxamide] |
| 420 nM | 420 nM | – | O=C(NCCO)c1cn(-c2ccc(F)cc2)c2ncccc2c1=O [Example 58, 1-(4-Fluorothenyl)-N-(2-hydroxyethyl)-1,4-dihydro[1,8]naphthylidin-4-one-3-carboxamide] |
| 390 nM | 1000 nM | – | O=C(NCc1ccccc1)c1cn(-c2ccc(F)cc2)c2ncccc2c1=O [Example 61, N-benzyl-1-(4-fluorophenyl)-1,4-dihydro[1,8]naphthylidin-4-one-3-carboxamide] |
| 85 nM | 400 nM | – | O=C(Nc1cccnc1Cl)c1cn(-c2ccc(F)cc2)c2ncccc2c1=O [Example 105, N-(2-Chloropyridin-3-yl)-1-(4-fluorophenyl)-1,4-dihydro[1,8]naphthylidin-4-one-3-carboxamide] |
| 710 nM | 1000 nM | – | O=C(NC1CCCCC1)c1cn(-c2ccc(F)cc2)c2ncccc2c1=O [Example 57, N-cyclohexyl-1-(4-fluorophenyl)-1,4-dihydro[1,8]naohthylidin-4-one-3-carboxamide] |
| 56 nM | 300 nM | – | O=C(Nc1ccncc1)c1cn(-c2cccc(CO)c2)c2ncccc2c1=O [Example 127, 1-(3-Hydroxymethylphenyl)-N-(4-pyridyl)-1,4-dihydro[1,8]naphthylidin-4-one-3-carboxamide] |
| 31 nM | 100 nM | – | CC(C)CNC(=O)c1cn(-c2ccc(F)cc2)c2ncccc2c1=O [Example 55, 1-(4-Fluorophenyl)-N-isobutyl-1,4-dihydro[1,8]naphthylidin-4-one-3-carboxamide] |
| 5200 nM | 10000 nM | – | CCn1cc(C(=O)NCCc2ccncc2)c(=O)c2ccc(C)nc21 [Comp. Ex., N-(2-(4-pyridyl)ethyl)-1-ethyl-7-methyl-1,4-dihydro[1,8]naphthylidin-4-one-3-carboxyamide, reference compound] |
| 4.6 nM | 1000 nM | – | O=C(Nc1c(Cl)ncnc1Cl)c1cn(-c2ccc(F)cc2)c2ncccc2c1=O [Example 108, 1-(4-Fluorophenyl)-N-(4,6-dichloropyrimidine-5-yl)-1,4-dihydro[1,8]naphthylidin-4-one-3-carboxamide] |
| 140 nM | 700 nM | – | O=C(Nc1ccncc1)c1cn(-c2ccc(OCc3ccccc3)nc2)c2ncccc2c1=O [Example 144, 1-(2-Benzyloxypyridin-5-yl)-N-(4-pyridyl)-1,4-dihydro[1,8]naphthylidin-4-one-3-carboxamide] |

Reference: patent US6541480B2, “1-aryl-1,8-naphthylidin-4-one derivative as type IV phosphodiesterase inhibitor” (Suntory Limited, priority 1997, dated 2003)
